Laboratory results as given in article PMC9926234, “Iterative computational design and crystallographic screening identifies potent inhibitors targeting the Nsp3 macrodomain of SARS-CoV-2” (Proceedings of the National Academy of Sciences of the …, 2023).

Assays:
SARS-CoV-2 NSP3 Mac1 [1] = target: T1, SARS-CoV-2 NSP3 Mac1 (Severe acute respiratory syndrome coronavirus 2, UniProt P0DTD1); assay type: binding; set-up: contains a conserved macrodomain enzyme (Mac1); conditions: maximal thermal upshift vs DMSO control
Protocol: DSF and associated compound handling was performed as described ([12]), with 5 µM dye “Fluorescent Yellow” (Jacquard iDye Cat #JID1405) used in place of SYPRO Orange. Compounds were tested in triplicate, at seven concentrations in two-fold serial dilutions, at a top concentration of either 1,000 or 100 μM. To minimize experimental noise arising from plate location-based effects on Tma, all concentrations and replicates for each compound were tested within a single region of the microtiter plates, including a DMSO-only control from which ΔTmas were calculated for that compound. […] For each compound, to determine statistical significance of the dose responsive thermal shift, the Spearman’s coefficient was calculated between compound concentration and ΔTma.

SARS-CoV-2 NSP3 Mac1 [2] = target: T1, SARS-CoV-2 NSP3 Mac1; assay type: binding; conditions: true hit = binding in crystallographic soaking or the HTRF-based binding assay

Row | SMILES | DSF max dTma (SARS-CoV-2 NSP3 Mac1 [1]) | HIT* (SARS-CoV-2 NSP3 Mac1 [2])
1 | Cc1oc(-c2cccs2)nc1Cc1nc(-c2cncnc2N)no1 [Z3789] | 0.56 °C | 
2 | Cc1cc(-n2cncn2)ccc1C(=O)OCC1OCCc2ccccc21 (centres unmarked) [Z3896] | 0.63 °C | 
3 | Cc1ccccc1CC(C)c1nc(-c2cc(N)ncn2)no1 (centres unmarked) [Z4066] | 0.98 °C | 
4 | CC(C(=O)N1CCCC1c1nc(C(N)=O)no1)c1cccc(F)c1 (centres unmarked) [Z4135] | 0.15 °C | 
5 | O=C(c1cccc(O)c1)N1CC=C(c2ccccc2)C1 [Z4141] | 0.71 °C | 
6 | O=C(c1cccc(O)c1)N1CCC(Nc2ccccc2)C1 (centres unmarked) [Z4508] | 0.37 °C | 
7 | Cc1nc2c(C(=O)OCc3ccnc(N(C)C)c3)ccnc2[nH]1 [Z4620] | 1.08 °C | 
8 | COC(=O)CC1CN(c2ncnc3[nH]ccc23)c2ccccc21 (centres unmarked) [Z4911] | 0.79 °C | 
9 | Nc1cc(-c2noc(CCn3cccn3)n2)ncn1 [Z5086] | 1.48 °C | 
10 | CC1c2ccc(F)cc2CCN1C(=O)c1cccc(O)c1 (centres unmarked) [Z5167] | 0 °C | 
11 | Cc1nc(Cc2noc(Cc3ccc4[nH]ncc4c3)n2)no1 [Z5262] | 0.45 °C | 
12 | Fc1ccc(F)c(Sc2ncnc3[nH]ccc23)c1 [Z5289] | 1.24 °C | 
13 | Cc1csc(=Nc2ccccc2)n1Cc1nnc2n1CCNC2=O [Z5356] | 0.51 °C | 
14 | O=C(c1c(F)ccc(O)c1F)N1CCC(Oc2cccc(F)c2)C1 (centres unmarked) [Z5547] | 0.07 °C | 
15 | CC(c1ccc(Cl)c(Cl)c1)S(=O)(=O)Cc1cn[nH]c1 (centres unmarked) [Z5728] | 0 °C | 
16 | Nc1ncnc2c1ncn2CCCc1ccsc1 [Z5972] | 0.51 °C | 
17 | Cc1ccc(-c2noc(C3CC(=O)N(c4cn[nH]c4)C3)n2)cc1 (centres unmarked) [Z6019] | 0.27 °C | 
18 | CNc1cc(-c2noc(CN3CCCC3=O)n2)ncn1 [Z6028] | 0.33 °C | 

Row | SMILES | DSF max dTma (SARS-CoV-2 NSP3 Mac1 [1]) | HIT* (SARS-CoV-2 NSP3 Mac1 [2])
19 | N#Cc1cccc(-n2ccc(C(=O)OCc3cccnc3)n2)c1 [Z6395] | 0.18 °C | 
20 | COc1ccc(-c2nnc(NC(=O)Cc3ncccc3F)s2)cc1 [Z6468] | 0.58 °C | 
21 | Cc1nc(S(=O)(=O)NCc2ccc(-c3ccncc3)cc2)cn1C [Z7041] | 0.35 °C | 
22 | Clc1cc2c(N3CCCC(c4nnc[nH]4)C3)ncnc2[nH]1 (centres unmarked) [Z7156] | 0.86 °C | 
23 | Cc1cc(C)nc(CSc2nnc3c(=O)[nH]c4ccccc4n23)c1 [Z7570] | 0.36 °C | 
24 | CN(Cc1nnc2c(=O)[nH]ccn12)c1nccc(C(F)(F)F)n1 [Z7665] | 0.55 °C | 
25 | CN(Cc1nnc2c(=O)[nH]ccn12)c1cc(Cl)nc(C2CC2)n1 [Z7766] | 0.14 °C | 
26 | CC1CCc2n[nH]cc2C1C(=O)N(C)OCc1ccccc1 (centres unmarked) [Z8074] | 0.54 °C | 
27 | O=c1[nH]nc(C2CCCN(c3ncnc4[nH]c(Cl)cc34)C2)o1 (centres unmarked) [Z8387] | 1.01 °C | 
28 | O=C(NC1c2cccc(O)c2CC1C(=O)O)c1ccc(Nc2cccnc2)cc1 (centres unmarked) [Z8539_0018] |  | Y
29 | O=C1CSc2cc(C(=O)OC3c4ccccc4CC3F)ccc2N1 (centres unmarked) [Z8554] | 0.13 °C | 
30 | O=C(Nc1cccnc1)Nc1nc2ccccc2c(=O)[nH]1 [Z8593] | 0 °C | 
31 | O=C(NCc1nc2ccccc2c(=O)[nH]1)Nc1cccnc1 [Z8598] | 0.22 °C | 
32 | O=C(Nc1cccnc1)Nc1ccc2ccccc2n1 [Z8614] | 0.06 °C | 
33 | Cc1n[nH]c2ncc(CN3CC(C)Oc4c(F)cccc43)cc12 (centres unmarked) [Z8637] | 0.16 °C | 
34 | CS(=O)(=O)C1CCCCN(c2ncnc3[nH]c4ccccc4c23)C1 (centres unmarked) [Z8648] | 0.24 °C | 
35 | Clc1cc2c(N3CCCC(c4cccnc4)C3)ncnc2[nH]1 (centres unmarked) [Z8680] | 0.25 °C | 
